Test results published in US7528140B2, “Substituted pyrrolo[3,2-d]pyrimidines as glycogen synthase kinase (GSK) inhibitors” (Teijin Limited, priority 2002, dated 2009).
pIC50: −log10 of the molar value.

Target: recombinant human GSK-3β (Homo sapiens, UniProt P49841)
Assay: Measurement of GSK-3 enzyme activity inhibition (32P phosphorylation of phospho-glycogen synthase peptide-2)
Type: biochemical
Settings: 20 μM ATP, 20 minutes at room temperature, read-out: GSK-3 enzyme inhibiting activity (IC50)
Procedure: Measurement of GSK-3 Enzyme Activity Inhibition
After adding 25 μL of phospho-glycogen synthase peptide-2 substrate solution [6 μM phospho -glycogen synthase peptide-2, 20 μM ATP, 16 mM MOPS buffer (pH 7.0), 0.2 mM EDTA, 20 mM magnesium acetate, 0.1 μCi [γ-^32P]ATP (specific activity: approximately 110 TBq/mmol)]to 5 μL of the test compound using 5% dimethylsulfoxide as the solvent, reaction was initiated by further addition of 20 μL of a GSK-3β enzyme solution [10 mU recombinant human GSK-3β, 20 mM MOPS buffer (pH 7.0), 1 mM EDTA, 0.1% polyoxyethylene lauryl ether (23 Lauryl Ether; Brij 35), 5% glycerol, 0.1% β-mercaptoethanol]. After conducting the reaction for 20 minutes at room temperature, an equivalent volume of a 200 mM phosphoric acid solution was added to quench the reaction, and 90 μL of the reaction product was adsorbed onto a MultiScreen PH plate (Millipore) and rinsed with a 100 mM phosphoric acid solution. After drying the plate, 30 μL of Micro Scint-O (Packard BioScience) was added, and the cpm was measured with a scintillation counter to determine the inhibiting activity. Phospho GS Peptide2 is […]P)-Glu-Asp-Glu-Glu-Glu (SEQ ID NO:1).

Sequence of recombinant human GSK-3β (P49841 whole entry): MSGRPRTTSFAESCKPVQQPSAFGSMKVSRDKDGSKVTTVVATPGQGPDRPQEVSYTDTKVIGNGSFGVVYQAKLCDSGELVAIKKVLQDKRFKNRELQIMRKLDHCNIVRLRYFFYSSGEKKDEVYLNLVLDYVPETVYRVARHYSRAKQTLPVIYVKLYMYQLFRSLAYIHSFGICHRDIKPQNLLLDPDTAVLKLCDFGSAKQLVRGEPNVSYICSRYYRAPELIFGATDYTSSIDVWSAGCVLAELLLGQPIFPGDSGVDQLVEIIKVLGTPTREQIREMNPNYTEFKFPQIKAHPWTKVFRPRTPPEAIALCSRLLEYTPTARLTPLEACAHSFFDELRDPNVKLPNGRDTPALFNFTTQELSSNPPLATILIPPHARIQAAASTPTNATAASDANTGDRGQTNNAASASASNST

Structure (SMILES) | pIC50
CN(C)c1c(C#N)c2nc[nH]c(=S)c2n1CCNC(=O)c1ccc(F)cc1 [6-1029, N-{2-[6-(dimethylamino)-7-cyano-4-thioxo(3-hydropyrrolo[3,2-d]pyrimidin-5-yl)]ethyl}(4-fluorophenyl)carboxamide] | 7.00 to 7.52
N#Cc1c(N2CCCC2)n(CCNC(=O)c2ccc(F)cc2)c2c(=S)[nH]cnc12 [6-1031, N-[2-(7-cyano-6-pyrrolidinyl-4-thioxo(3-hydropyrrolo[3,2-d]pyrimidin-5-yl))ethyl](4-fluorophenyl)carboxamide] | 7.00 to 7.52
